How the values were obtained:
salmon testes DNA = experiment: Photoadduct formation with DNA under UVA irradiation (TLC analysis); conditions: 15 J/cm2 UVA
Procedure: The total energy that struck the sample was monitored by means of a radiometer (Variocontrol, Waldmann, Villingen-Schwenningen, Germany), equipped with a Variocontrol UV Sensor (Waldmann). The radiant power emitted by the UVA lamp was about […]. The samples were maintained at room temperature during irradiation.
The test compounds were dissolved in ethanol (2 mg/mL) and salmon testes DNA (Sigma-Aldrich) was dissolved in 10 mM NaCl and 1 mM EDTA solution (1.5 × 10^−3 M). Each test solution (250 μL) was added dropwise to the DNA solution (5 mL). The mixture was irradiated with 15 J/cm2 UVA light in a glass dish for 1 h. After irradiation, the DNA was precipitated with 1 M NaCl and two volumes of cold ethanol; the precipitated DNA was collected, washed with 80% ethanol, dried, and then dissolved in water. To obtain hydrolysis, the final solution was acidified with 1 M HCl, heated at 100 °C for 1 h, neutralized with NaOH and extracted three times with chloroform. Then, all of the organic layers were collected, dried under a high vacuum, and dissolved in ethanol. The hydrolyzed mixtures were separated by thin layer chromatography (TLC; F254 plates, 0.25 mm, Merck, Darmstadt, Germany) eluting with EtOAc/EtOH (9:1). The plates were analyzed with a Mineral Light Lamp VL-4LC VILBERT-LOURMAT (Vilber, Marne-la-Vallée, France).

[1] = system: Salmonella typhimurium 1535; experiment: Ames mutagenicity assay, plate incorporation, TA1535; type: cell-based
Procedure: (§1) The mutagenicity assay was performed for the test compounds following the plate incorporation method with the histidine-requiring Salmonella typhimurium mutant TA97A, TA98, TA100, and TA1535 strains purchased by Molecular Toxicology Inc. (Boone, NC, USA; moltox.com). All strains (100 µL per plate of fresh overnight cultures) were checked with and without the addition of 0.5 mL of a 5% S9 exogenous metabolic activator (S9 mix). The lyophilized post-mitochondrial supernatant S9 mix (Aroclor 1254-induced, Sprague–Dawley male rat liver in 0.154 M KCl solution), commonly used for the activation of pro-mutagens in mutagenic metabolites (Molecular Toxicology, Inc., Boone, NC, USA), was stored at −80 °C before use. The concentration tested for all the samples were 5, 10, 20, 50, and 100 µL/plate from a stock solution of 500 nM. A fully grown culture of the appropriate tester strain (0.1 mL) was added to 2 mL molten top agar (0.6% agar, 0.6% NaCl, 0.5 mM L-histidine/biotin solution) at 46 °C, together with 0.1 mL of each sample solution at different concentrations, and 0.5 mL S9 mix for assays with metabolic activation. The ingredients were thoroughly mixed and poured onto minimal glucose agar plates (1.5% agar in 2% Vogel–Bonner medium E with 5% glucose solution). DMSO was used as negative a control (100 µL/plate). Positive controls were prepared as follows: 2-aminoanthracene (2 µg/plate) and 2-nitrofluorene (2 µg/plate) for TA 97A, TA98 and TA1535 with and without metabolic activator (S9 mix), respectively; 2-aminoanthracene (2 µg/plate) and sodium azide (2 µg/plate) for TA100, with and without metabolic activator (S9 mix), respectively. The plates were incubated at 37 °C for 72 h and then his+ revertants were checked and counted using a Colony Counter 560 Suntex (Antibioticos, Italy). A sample was considered mutagenic when the observed number of colonies was at least twofold over the spontaneous level of revertants. All determinations were made in triplicate. Statistical analysis: relative standard deviations were calculated using the statistical software STATISTICA 6.0 (StatSoft, Italia srl, Vigonza, Italy). […]
(§2) Salmonella typhimurium TA97A Salmonella typhimurium TA98 Salmonella typhimurium TA100 Salmonella typhimurium 1535 […]
(§3) average SD t/c average SD t/c average SD t/c average SD t/c average SD t/c average SD t/c average SD t/c average SD t/c […]
(§4) *Significant values according to Ames computation (Maron & Ames, 1983); DMSO, C+: negative and positive controls respectively; SD: Standard Deviation; t/c: number of revertant colonies in treated plates/number of revertant colonies in […]

[2] = system: Salmonella typhimurium TA97A; experiment: Ames mutagenicity assay, plate incorporation, TA97A; type: cell-based
Procedure: as §1, §2, §3, §4

[3] = system: Salmonella typhimurium TA98; experiment: Ames mutagenicity assay, plate incorporation, TA98; type: cell-based
Procedure: as §1, §2, §3, §4

[4] = 1535, +S9, 5 µL/plate of 500 nM stock
[5] = 1535, +S9, 10 µL/plate of 500 nM stock
[6] = 1535, +S9, 20 µL/plate of 500 nM stock
[7] = 1535, +S9, 50 µL/plate of 500 nM stock
[8] = 1535, +S9, 100 µL/plate of 500 nM stock
[9] = 1535, -S9, 5 µL/plate of 500 nM stock
[10] = 1535, -S9, 10 µL/plate of 500 nM stock
[11] = 1535, -S9, 20 µL/plate of 500 nM stock
[12] = 1535, -S9, 50 µL/plate of 500 nM stock
[13] = 1535, -S9, 100 µL/plate of 500 nM stock
[14] = +S9, 5 µL/plate of 500 nM stock
[15] = +S9, 10 µL/plate of 500 nM stock
[16] = +S9, 20 µL/plate of 500 nM stock
[17] = +S9, 50 µL/plate of 500 nM stock
[18] = +S9, 100 µL/plate of 500 nM stock
[19] = -S9, 5 µL/plate of 500 nM stock
[20] = -S9, 10 µL/plate of 500 nM stock
[21] = -S9, 20 µL/plate of 500 nM stock
[22] = -S9, 50 µL/plate of 500 nM stock
[23] = -S9, 100 µL/plate of 500 nM stock
[24] = TA98, +S9, 5 µL/plate of 500 nM stock
[25] = TA98, +S9, 10 µL/plate of 500 nM stock
[26] = TA98, +S9, 20 µL/plate of 500 nM stock
[27] = TA98, +S9, 50 µL/plate of 500 nM stock
[28] = TA98, +S9, 100 µL/plate of 500 nM stock
[29] = TA98, -S9, 5 µL/plate of 500 nM stock
[30] = TA98, -S9, 10 µL/plate of 500 nM stock
[31] = TA98, -S9, 20 µL/plate of 500 nM stock
[32] = TA98, -S9, 50 µL/plate of 500 nM stock
[33] = TA98, -S9, 100 µL/plate of 500 nM stock

Cc1cc(=O)oc2c1cc(-c1ccccc1)c1occ(C)c12 [6-PhDMA]
photoadduct formation with DNA upon UVA irradiation (salmon testes DNA): only the unchanged bands | revertant colonies, average [1, 4]: 13.5 | t/c (revertant colonies treated/untreated plates) [1, 4]: 1.3 | revertant colonies, average [1, 5]: 12.5 | t/c (revertant colonies treated/untreated plates) [1, 5]: 1.2 | revertant colonies, average [1, 6]: 10.0 | t/c (revertant colonies treated/untreated plates) [1, 6]: 0.9 | revertant colonies, average [1, 7]: 10.0 | t/c (revertant colonies treated/untreated plates) [1, 7]: 0.9 | revertant colonies, average [1, 8]: 14.0 | t/c (revertant colonies treated/untreated plates) [1, 8]: 1.3 | revertant colonies, average [1, 9]: 13.5 | t/c (revertant colonies treated/untreated plates) [1, 9]: 1.2 | revertant colonies, average [1, 10]: 14.5 | t/c (revertant colonies treated/untreated plates) [1, 10]: 1.3 | revertant colonies, average [1, 11]: 7.5 | t/c (revertant colonies treated/untreated plates) [1, 11]: 0.7 | revertant colonies, average [1, 12]: 8.0 | t/c (revertant colonies treated/untreated plates) [1, 12]: 0.7 | revertant colonies, average [1, 13]: 9.0 | t/c (revertant colonies treated/untreated plates) [1, 13]: 0.8 | revertant colonies, average [2, 14]: 116.5 | t/c (revertant colonies treated/untreated plates) [2, 14]: 1.1 | revertant colonies, average [2, 15]: 92.5 | t/c (revertant colonies treated/untreated plates) [2, 15]: 0.8 | revertant colonies, average [2, 16]: 99.0 | t/c (revertant colonies treated/untreated plates) [2, 16]: 0.9 | revertant colonies, average [2, 17]: 107.0 | t/c (revertant colonies treated/untreated plates) [2, 17]: 1.0 | revertant colonies, average [2, 18]: 101.0 | t/c (revertant colonies treated/untreated plates) [2, 18]: 0.9 | revertant colonies, average [2, 19]: 75.0 | t/c (revertant colonies treated/untreated plates) [2, 19]: 1.0 | revertant colonies, average [2, 20]: 69.5 | t/c (revertant colonies treated/untreated plates) [2, 20]: 0.9 | revertant colonies, average [2, 21]: 86.5 | t/c (revertant colonies treated/untreated plates) [2, 21]: 1.1 | revertant colonies, average [2, 22]: 79.5 | t/c (revertant colonies treated/untreated plates) [2, 22]: 1.0 | revertant colonies, average [2, 23]: 88.5 | t/c (revertant colonies treated/untreated plates) [2, 23]: 1.1 | revertant colonies, average [3, 24]: 45.5 | t/c (revertant colonies treated/untreated plates) [3, 24]: 1.0 | revertant colonies, average [3, 25]: 49.5 | t/c (revertant colonies treated/untreated plates) [3, 25]: 1.1 | revertant colonies, average [3, 26]: 46.5 | t/c (revertant colonies treated/untreated plates) [3, 26]: 1.0 | revertant colonies, average [3, 27]: 46.0 | t/c (revertant colonies treated/untreated plates) [3, 27]: 1.0 | revertant colonies, average [3, 28]: 45.0 | t/c (revertant colonies treated/untreated plates) [3, 28]: 1.0 | revertant colonies, average [3, 29]: 37.5 | t/c (revertant colonies treated/untreated plates) [3, 29]: 1.0 | revertant colonies, average [3, 30]: 41.0 | t/c (revertant colonies treated/untreated plates) [3, 30]: 1.1 | revertant colonies, average [3, 31]: 38.0 | t/c (revertant colonies treated/untreated plates) [3, 31]: 1.0 | revertant colonies, average [3, 32]: 43.5 | t/c (revertant colonies treated/untreated plates) [3, 32]: 1.1 | revertant colonies, average [3, 33]: 40.0 | t/c (revertant colonies treated/untreated plates) [3, 33]: 1.0

Reference: PMC9570109, “Improved Trimethylangelicin Analogs for Cystic Fibrosis: Design, Synthesis and Preliminary Screening” (International Journal of Molecular Sciences, 2022)
